Data reported in PubChem BioAssay (NCI).
“And” between values parts separate entries of the source, which are not always exact repeats. Equal entries are not always repeated.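 Cells were grown in 96-well plates and exposed to each compound for 48 hours at five concentrations; endpoints were interpolated linearly between bracketing concentrations, or set to the highest concentration if not reached. Abbreviation: GI50, concentration required for 50% inhibition of growth. At the TGI there is no net growth.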

Assays:
Test in all cases: growth of human tumour cells (NCI), 48 h
786-0 renal = test system: 786-0 renal
HOP-92 NSCLC = test system: HOP-92 NSCLC
MDA-MB-231 breast = test system: MDA-MB-231 breast
MDA-MB-435 = test system: MDA-MB-435
MOLT-4 leukemia = test system: MOLT-4 leukemia
OVCAR-5 ovarian = test system: OVCAR-5 ovarian
RPMI-8226 leukemia = test system: RPMI-8226 leukemia
SF-268 CNS = test system: SF-268 CNS
SK-OV-3 ovarian = test system: SK-OV-3 ovarian
SNB-75 CNS = test system: SNB-75 CNS

Compound	GI50 (786-0 renal)	TGI (786-0 renal)	GI50 (HOP-92 NSCLC)	TGI (HOP-92 NSCLC)	GI50 (MDA-MB-231 breast)	TGI (MDA-MB-231 breast)	GI50 (MDA-MB-435)	TGI (MDA-MB-435)	GI50 (MOLT-4 leukemia)	TGI (MOLT-4 leukemia)	GI50 (OVCAR-5 ovarian)	TGI (OVCAR-5 ovarian)	GI50 (RPMI-8226 leukemia)	TGI (RPMI-8226 leukemia)	GI50 (SF-268 CNS)	TGI (SF-268 CNS)	GI50 (SK-OV-3 ovarian)	TGI (SK-OV-3 ovarian)	GI50 (SNB-75 CNS)	TGI (SNB-75 CNS)
Cc1nc2ccccn2c1NC(=O)NN1C(=O)CSC1c1ccc(Cl)cc1 (configuration not stated)	> 100 µM	> 100 µM	> 100 µM	> 100 µM	> 100 µM	> 100 µM	> 100 µM	> 100 µM	> 100 µM	> 100 µM	> 100 µM	> 100 µM	> 100 µM	> 100 µM	> 100 µM	> 100 µM	> 100 µM	> 100 µM	> 100 µM	> 100 µM
COc1ccc(-c2nn(-c3cccc(Cl)c3)cc2/C=C2\NC(=S)N(c3ccc(Cl)cc3)C2=O)cc1	5.57 µM	> 25 µM	1.84 µM	8.07 µM	3.33 µM	11.5 µM	7.38 µM	> 25 µM	4.47 µM	10.7 µM	6.31 µM	> 25 µM	3.53 µM	15.9 µM	7.41 µM	> 25 µM	3.77 µM	8.22 µM	0.95 µM	4.47 µM
Cc1cc2c(cc1Cl)SC(N(c1ccccc1Cl)S(=O)(=O)c1ccc(Br)s1)=NS2(=O)=O	30 µM	> 100 µM	6.62 µM	21.8 µM	18.5 µM	61.8 µM	13.2 µM	31.6 µM	15.3 µM	42.5 µM	60 µM	> 100 µM	24.8 µM	82.3 µM	12.7 µM	30.7 µM	24.8 µM	> 100 µM	17.3 µM	48.7 µM
CN(C)c1ccc(/C=C/C(=O)c2ccc(Nc3nc(Nc4ccc(F)cc4)nc(Nc4ccc(F)cc4)n3)cc2)cc1	14.9 µM	45.8 µM	4.94 µM	24 µM	13.5 µM	46.4 µM	3.49 µM	25.4 µM	6.48 µM	63 µM	34.4 µM	> 100 µM	7.62 µM	> 100 µM	24.9 µM	> 100 µM	14.7 µM	55.7 µM	13.8 µM	39 µM
Clc1ccc(-c2cc(-c3ccccc3)nc(N3CCN(CCCNc4ccnc5cc(Cl)ccc45)CC3)n2)cc1	1.47 µM	2.84 µM	1.21 µM	2.6 µM	1.67 µM	3.19 µM	1.73 µM	3.16 µM	1.22 µM	4.35 µM	1.66 µM	3.08 µM	1.74 µM	4.41 µM	1.73 µM	3.64 µM	1.74 µM	3.17 µM	1.49 µM	2.85 µM
Cc1cc(S(=O)(=O)/N=C(\N)Nc2cccc(O)c2)c(SCc2ccccc2)cc1Cl	16.9 µM	33.5 µM	9.89 µM	36.3 µM	16.8 µM	41.2 µM	14.2 µM	32.5 µM	9.06 µM	> 100 µM	23.4 µM	53 µM	5.81 µM	> 100 µM	17.4 µM	69 µM	19.1 µM	37.9 µM	10.8 µM	26.5 µM
C[C@@H]1CC[C@H]2[C@@H](C)C(O)O[C@@H]3O[C@]4(C)CC[C@@H]1[C@]32OO4 (some centres not stated)	1.59 µM	> 48.8 µM	0.716 µM	7.05 µM	6.16 µM	> 56.8 µM	0.361 µM	10.8 µM	0.34 µM	10.5 µM	0.735 µM	39.4 µM	0.143 µM		1.4 µM	> 62.7 µM	11.8 µM	> 60.3 µM	2.54 µM	15.6 µM
CCOC(=O)/C(=C/CC/C(C)=C/CC/C(C)=C/CCc1ccoc1)CC(=O)N1CCCCC1	5.29 µM	18.8 µM	1.7 µM	4.26 µM	1.96 µM	4.17 µM	3.05 µM	10.9 µM	4.03 µM	9.67 µM	3.1 µM	14.9 µM	1.87 µM	5.47 µM	8.91 µM	38.3 µM	8.27 µM	36.1 µM	4.1 µM	35.3 µM
Cc1cccc2c(C3=C(c4cn(C)c5ccccc45)C(=O)NC3=O)cn(C)c12	> 22.1 µM	> 25 µM	9.91 µM	> 25 µM	> 19.6 µM	> 25 µM	1.24 µM	> 25 µM	> 25 µM	> 25 µM	> 25 µM	> 25 µM	> 18.6 µM	> 25 µM	13.6 µM	> 25 µM	> 22.5 µM	> 25 µM	1.15 µM	> 25 µM
C[C@@H](O)[C@@H](C)Oc1nc(Nc2ccc(S(=N)(=O)C3CC3)cc2)ncc1C(F)(F)F (some centres not stated)	0.0352 µM	17.8 µM	0.026 µM	0.0753 µM	0.0336 µM	> 100 µM	0.0335 µM	1.22 µM	0.0255 µM	0.0816 µM	0.033 µM	> 70.6 µM	0.0226 µM	0.0586 µM	0.03 µM	0.726 µM	0.0891 µM	> 100 µM	0.0162 µM	0.0554 µM
COc1ccc(C(=O)/C=C/c2sc(Cl)nc2Cl)cc1	1.94 µM	4.94 µM	4.06 µM	18 µM	1.33 µM	4.64 µM	3.11 µM	11.4 µM	0.369 µM	13.6 µM	3.01 µM	13.3 µM	1.36 µM	4.77 µM	3.23 µM	16.4 µM	7.68 µM	23.7 µM	2.56 µM	8.29 µM
CNC(=O)c1cc(Oc2ccc3nc(NC(=O)Nc4ccc(CN5CCOCC5)c(C(F)(F)F)c4)sc3c2)ccn1	2.22 µM	4.32 µM	1.44 µM	3.64 µM	2.14 µM	5.8 µM	1.83 µM	4.38 µM	2.57 µM	> 100 µM	2.44 µM	6.9 µM	1.72 µM	4.49 µM	3.22 µM	14.6 µM	2.18 µM	4.81 µM	1.74 µM	4.95 µM
Nc1nc(=O)n(C2CC(O)C(CO)O2)cc1F (configuration not stated)	0.0589 µM	> 100 µM	1.65 µM		10.7 µM	> 100 µM	> 100 µM	> 100 µM	0.00502 µM		> 100 µM	> 100 µM		> 100 µM	0.00946 µM	> 100 µM	> 100 µM	> 100 µM		> 100 µM
C[C@@H](C1CC[C@H]2[C@@H]3[C@@H]4O[C@@H]4[C@@]4(O)CC=CC(=O)[C@]4(C)[C@H]3C[C@H](O)[C@]12C)[C@H]1C[C@]2(C)O[C@]2(C)C(=O)O1 (some centres not stated)		> 100 µM		> 100 µM		> 100 µM		> 100 µM		> 100 µM		> 100 µM		> 100 µM		> 100 µM		> 100 µM		> 100 µM
O=C(O)C1C2C=CC(O2)C1C(=O)NCc1cccnc1 (configuration not stated)		> 100 µM		> 100 µM		> 100 µM		> 100 µM		> 100 µM		> 100 µM		> 100 µM		> 100 µM		> 100 µM		> 100 µM
CC1(C)OB(c2ccc(N(CCOS(C)(=O)=O)CCOS(C)(=O)=O)cc2)OC1(C)C	3.41 µM	21.6 µM	10.2 µM	48.6 µM	> 43.5 µM	> 65.2 µM	23 µM	53.4 µM	1.68 µM	> 72.7 µM	25.4 µM	48.3 µM	7.75 µM	> 72.5 µM	23 µM	> 83.7 µM	34.3 µM	> 100 µM	22.1 µM	49.3 µM
CC[C@@]1(O)C(=O)OCc2c1cc1n(c2=O)Cc2cc3cc(Cl)ccc3nc2-1	0.00519 µM	0.327 µM	0.0256 µM and 0.0415 µM	1.32 µM and 0.709 µM	0.094 µM	4.69 µM	0.089 µM	0.357 µM	0.00119 µM		0.0635 µM and 0.0706 µM	0.363 µM and 0.318 µM	0.0132 µM and 0.0334 µM		0.00403 µM		0.0152 µM	39.9 µM	0.00253 µM	0.053 µM and 0.0414 µM
C=CC(=O)N[C@@H]1CN(c2nc(Nc3cn(C)nc3OC)c3ncn(C)c3n2)C[C@H]1F	28.1 µM	> 100 µM	17.3 µM	70.7 µM	23.8 µM	> 88.2 µM	15.8 µM	38.5 µM	39 µM	> 100 µM	11.5 µM	> 100 µM	> 71.7 µM	> 100 µM	21.5 µM	> 100 µM	0.0881 µM	> 47.2 µM	19.4 µM	> 78 µM
Oc1ccc(NC(=S)Nc2ccccc2)cc1	> 100 µM	> 100 µM	51.8 µM	> 100 µM	> 100 µM	> 100 µM	> 100 µM	> 100 µM	> 100 µM	> 100 µM	> 100 µM	> 100 µM	> 100 µM	> 100 µM	> 100 µM	> 100 µM	> 100 µM	> 100 µM	> 100 µM	> 100 µM
O=c1cc(-c2ccc(Cl)cc2)[nH]c2ccccc12	64.8 µM	> 100 µM	64.2 µM	> 100 µM	57 µM	> 100 µM	2.89 µM	28.5 µM	46.8 µM	> 100 µM	> 100 µM	> 100 µM	46.9 µM	> 100 µM	83.3 µM	> 100 µM	44.8 µM	> 100 µM	37.4 µM	> 100 µM
C[C@H]1CCC/C=C/C2CC(OC(=O)CN(C)C)CC2C(OC(=O)CN(C)C)/C=C/C(=O)O1 (some centres not stated)	0.107 µM		1.69 µM	12.5 µM	0.148 µM	0.806 µM	0.408 µM	> 100 µM	0.357 µM	5.44 µM	0.44 µM	4.05 µM	0.712 µM	> 81.4 µM	0.484 µM	> 100 µM	0.237 µM		0.0567 µM	
OCC1NC(COC2OC(CO)C(O)C(O)C2O)C(O)C(O)C1O (configuration not stated)		> 100 µM		> 100 µM		> 100 µM		> 100 µM		> 100 µM		> 100 µM		> 100 µM		> 100 µM				> 100 µM
CCN(C(=O)N1CCN(c2cc3c(cc2F)c(=O)c(C(=O)O)cn3C2CC2)CC1)c1nc(-c2ccccc2)cs1	2.47 µM	15.5 µM	2.17 µM	7.53 µM	2.11 µM	5.92 µM	2.87 µM	11.6 µM			3.27 µM	> 100 µM	2.41 µM	8.75 µM	3.29 µM	> 100 µM	2.1 µM	6.86 µM	3.66 µM	16.4 µM
COc1ccccc1-n1cnc(N)c1C(=O)c1cc(OC)c(OC)c(OC)c1	5.41 µM	> 100 µM	43.8 µM	> 100 µM	5.93 µM	> 100 µM	1.07 µM	3.81 µM	4.82 µM	> 100 µM	62.5 µM	> 100 µM	2.42 µM	13.3 µM	4.44 µM	> 100 µM			2.3 µM	9.3 µM
CCn1cnc(C[C@H](NC(=O)[C@H](CCCCNC(=O)Nc2cc(C(F)(F)F)cc(C(F)(F)F)c2)NC(=O)Nc2cc(C(F)(F)F)cc(C(F)(F)F)c2)C(=O)OC)c1	8.78 µM	> 10 µM	2.24 µM	9.81 µM	2.58 µM	6.37 µM	8.46 µM	> 10 µM			> 10 µM	> 10 µM	3.08 µM	> 10 µM	6.04 µM	> 10 µM	> 10 µM	> 10 µM	1.37 µM	> 10 µM
